Test results reported in paper PMC5064002, “Sintokamide A Is a Novel Antagonist of Androgen Receptor That Uniquely Binds Activation Function-1 in Its Amino-terminal Domain” (The Journal of Biological Chemistry, 2016).

Test system: LNCaP xenografts
Experiment: LNCaP CRPC xenografts in castrated mice
Format: in vivo, NOD-SCID mice
Experimental: Male NOD-SCID mice bearing subcutaneous LNCaP or LNCaP95 tumors were castrated when the tumor volume reached ∼100 mm^3. Seven days after castration, animals were injected intratumorally with 30 mg/kg of body weight SINT1 or a matching volume of vehicle (DMSO) every 3 days for a total of 15 days. Animal behavior and body weight were observed throughout the study period for signs of toxicity. Tumor volumes were calculated by the formula length × width × height × 0.5236. Tumors were excised 3 days after the last injection and prepared for immunohistochemistry or gene expression.
Xenograft sections were stained with hematoxylin and eosin and for Ki67 expression by Wax it Histology Inc. Cells that were positive for Ki67 were counted in sections from three xenografts for each treatment. For PSA and AR staining, dewaxed sections were microwaved for 10 min on full power in prewarmed Antigen Unmasking Solution (pH 6; Vector Laboratories, Inc.). The endogenous peroxidase activity was blocked by incubation in 3% H2O2 for 10 min followed by incubation in Clear Vision Histostaining Blocking Solution (UniCure Lab, Inc.) for 1 h at room temperature. Sections were incubated with AR-N20 (1:500 dilution) and PSA (1:5 dilution; overnight at 4 °C) primary antibodies. Samples were then incubated for 30 min at room temperature with secondary antibodies and mounted in Permount mounting medium (SP15–100, Fisher).

CCC(=O)NC(CC(C)C(Cl)(Cl)Cl)C(=O)N1C(=O)C=C(OC)C1CC(C)C(Cl)Cl (centres unmarked) [SINT1, Sintokamide A]
CRPC tumor overall growth (castrated mice, 30 mg/kg intratumorally every 3 days, five doses, n = 8, p = 0.0495): 112 ± 13%
animals achieving a serum PSA drop of ≥50% (day 15 vs day of first dose): six
number of Ki67-positive cells in harvested xenografts (immunohistochemistry): reduced
levels of PSA in xenografts (immunohistochemistry, vs vehicle control): marked decreases
levels and cellular localization of AR protein in xenografts (immunohistochemistry, vs vehicle-treated): similar
